Measured values reported in patent publication EP2758401B1 (Bayer Intellectual Property GmbH, priority 2011, dated 2013).
Structures can show the parent of a compound that is named as a salt. Blank lines part the entries; values can stand above or below the compound they belong to.

Experiments:
MKNK1 [1] = molecular target: T1, MKNK1 (Homo sapiens, UniProt Q9BUB5, T385D); experiment: MKNK1 kinase high ATP assay (TR-FRET); format: biochemical; conditions: ATP final conc. 2 mM; 15 min pre-incubation; reaction time 30 min at 22°C
T1 construct: GST (N); purchased Carna Biosciences 02-145; host or cells: insect cells (baculovirus expression system)
Experimental: MKNK1-inhibitory activity at high ATP of compounds of the present invention after their preincubation with MKNK1 was quantified employing the TR-FRET-based MKNK1 high ATP assay as described in the following paragraphs.
As substrate for the kinase reaction the biotinylated peptide biotin-Ahx-[…] (C-terminus in amide form) was used, which can be purchased e.g. from the company Biosyntan (Berlin-Buch, Germany).
For the assay 50 nL of a 100fold concentrated solution of the test compound in DMSO was pipetted into a black low volume 384well microtiter plate (Greiner Bio-One, Frickenhausen, Germany), 2 µL of a solution of MKNK1 in aqueous assay buffer [50 mM HEPES pH 7.5, 5 mM magnesium chloride, 1.0 mM dithiothreitol, 0.005% (v/v) Nonidet-P40 (Sigma)] was added and the mixture was incubated for 15 min at 22°C to allow pre-binding of the test compounds to the enzyme before the start of the kinase reaction. Then the kinase reaction was started by the addition of 3 µL of a solution of adenosine-tri-phosphate (ATP, 3.3 mM => final conc. in the 5 µL assay volume is 2 mM) and substrate (0.1 µM => final conc. in the 5 µL assay volume is 0.06 µM) in assay buffer and the resulting mixture was incubated for a reaction time of 30 min at 22°C. The concentration of MKNK1 was adjusted depending of the activity of the enzyme lot and was chosen appropriate to have the assay in the linear range, typical concentrations were in the range of 0.003 µg/mL. The reaction was stopped by the addition of 5 µL of a solution of TR-FRET detection reagents (5 nM streptavidine-XL665 [Cisbio Bioassays, Codolet, France] and 1 nM anti-ribosomal protein S6 (pSer236)-antibody from Invitrogen [# 44921G] and 1 nM LANCE EU-W1024 labeled ProteinG [Perkin-Elmer, product no. AD0071]) in an aqueous EDTA-solution (100 mM EDTA, 0.1 % (w/v) bovine serum albumin in 50 mM HEPES pH 7.5).
(§1) The resulting mixture was incubated for 1 h at 22°C to allow the formation of complex between the phosphorylated biotinylated peptide and the detection reagents. Subsequently the amount of phosphorylated substrate was evaluated by measurement of the resonance energy transfer from the Eu-chelate to the streptavidine-XL. Therefore, the fluorescence emissions at 620 nm and 665 nm after excitation at 350 nm were measured in a TR-FRET reader, e.g. a Rubystar (BMG Labtechnologies, Offenburg, Germany) or a Viewlux (Perkin-Elmer). The ratio of the emissions at 665 nm and at […] was taken as the measure for the amount of phosphorylated substrate. The data were normalised (enzyme reaction without inhibitor = 0 % inhibition, all other assay components but no enzyme = 100 % inhibition).

MKNK1 [2] = molecular target: T1, MKNK1; experiment: MKNK1 kinase assay (TR-FRET); format: biochemical; conditions: ATP final conc. 10 µM; 15 min pre-incubation; reaction time 45 min at 22°C
Experimental: MKNK1-inhibitory activity of compounds of the present invention was quantified employing the MKNK1 TR-FRET assay as described in the following paragraphs.
As substrate for the kinase reaction the biotinylated peptide biotin-Ahx-[…] (C-terminus in amide form) was used which can be purchased e.g. form the company Biosyntan (Berlin-Buch, Germany).
For the assay 50 nL of a 100fold concentrated solution of the test compound in DMSO was pipetted into a black low volume 384well microtiter plate (Greiner Bio-One, Frickenhausen, Germany), 2 µL of a solution of MKNK1 in aqueous assay buffer [50 mM HEPES pH 7.5, 5 mM magnesium chloride, 1.0 mM dithiothreitol, 0.005% (v/v) Nonidet-P40 (Sigma)] was added and the mixture was incubated for 15 min at 22°C to allow pre-binding of the test compounds to the enzyme before the start of the kinase reaction. Then the kinase reaction was started by the addition of 3 µL of a solution of adenosine-tri-phosphate (ATP, 16.7 µM => final conc. in the 5 µL assay volume is 10 µM) and substrate (0.1 µM => final conc. in the 5 µL assay volume is 0.06 µM) in assay buffer and the resulting mixture was incubated for a reaction time of 45 min at 22°C.
as §1, with “inhibition). […] Table 1: MKNK1 IC50s” for “inhibition).”

T1 sequence (Q9BUB5 1-424 isoform Q9BUB5-2 T344D): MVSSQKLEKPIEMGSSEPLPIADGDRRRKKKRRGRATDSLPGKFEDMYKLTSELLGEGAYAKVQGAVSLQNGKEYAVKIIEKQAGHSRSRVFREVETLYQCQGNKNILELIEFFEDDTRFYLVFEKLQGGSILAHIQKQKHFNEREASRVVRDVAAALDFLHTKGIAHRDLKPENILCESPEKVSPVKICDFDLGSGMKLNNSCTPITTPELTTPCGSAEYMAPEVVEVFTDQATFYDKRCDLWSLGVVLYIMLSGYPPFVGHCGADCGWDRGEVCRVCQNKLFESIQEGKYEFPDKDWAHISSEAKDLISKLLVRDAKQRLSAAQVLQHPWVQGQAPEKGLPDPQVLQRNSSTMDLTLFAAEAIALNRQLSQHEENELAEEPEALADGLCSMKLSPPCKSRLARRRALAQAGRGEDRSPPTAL

Compound: NCC(Cc1ccc(F)cc1)Oc1ccc2ncc(-c3cc4ccccc4o3)n2n1 (stereo not drawn) [Example 53, 2-{[3-(1-Benzofuran-2-yl)imidazo[1,2-b]pyridazin-6-yl]oxy}-3-(4-fluorophenyl)-propan-1-amine]
IC50 (MKNK1 [1]): 46 nM

Compound: NCC(Oc1ccc2ncc(-c3cc4ccccc4o3)n2n1)c1ccccn1 (stereo not drawn) [Example 57, 2-{[3-(1-benzofuran-2-yl)-imidazo-[1,2-b]-pyridazin-6-yl]oxy}-2-(pyridin-2-yl)-ethanamine]
IC50 (MKNK1 [2]): 94 nM

Compound: N[C@H]1CCC[C@H]1Oc1ccc2ncc(-c3cc4ccccc4o3)n2n1 [Example 25, (1S,2R)-2-{[3-(1-Benzofuran-2-yl)imidazo[1,2-b]pyridazin-6-yl]oxy}cyclopentan-amine salt with formic acid]
IC50 (MKNK1 [1]): 22 nM | IC50 (MKNK1 [2]): 7 nM

Compound: C[C@H](CN)Oc1ccc2ncc(-c3cc4cc(Cl)ccc4o3)n2n1 [Example 15, (2R)-2-{[3-(5-Chloro-1-benzofuran-2-yl)imidazo[1,2-b]pyridazin-6-yl]oxy}-propan-1-amine]
IC50 (MKNK1 [1]): 197 nM | IC50 (MKNK1 [2]): 36 nM

IC50 (MKNK1 [1]): 59 nM | IC50 (MKNK1 [2]): 17 nM
Compound: 1-{[3-(1-Benzofuran-2-yl)imidazo[1,2-b]pyridazin-6-yl]oxy}-2-methylpropan-2-amine [Example 29]

Compound: NCC1(COc2ccc3ncc(-c4cc5ccccc5o4)n3n2)COC1 [Example 44, 1-[3-({[3-(1-Benzofuran-2-yl)imidazo[1,2-b]pyridazin-6-yl]oxy}methyl)oxetan-3-yl]methanamine]
IC50 (MKNK1 [1]): 63 nM | IC50 (MKNK1 [2]): 52 nM

Compound: COc1ccc2oc(-c3cnc4ccc(OCCCN)nn34)cc2c1 [Example 9, 3-{[3-(5-Methoxy-1-benzofuran-2-yl)imidazo[1,2-b]pyridazin-6-yl]oxy}propan-1-amine]
IC50 (MKNK1 [1]): 22 nM | IC50 (MKNK1 [2]): 7 nM

Compound: COc1cccc2oc(-c3cnc4ccc(OCCCN)nn34)cc12 [Example 4, 3-{[3-(4-Methoxy-1-benzofuran-2-yl)imidazo[1,2-b]pyridazin-6-yl]oxy}propan-1-amine]
IC50 (MKNK1 [1]): 15 nM | IC50 (MKNK1 [2]): 5 nM

Compound: NCC(Oc1ccc2ncc(-c3cc4ccccc4o3)n2n1)C1CCOC1 (stereo not drawn) [Example 35, 2-{[3-(1-Benzofuran-2-yl)imidazo[1,2-b]pyridazin-6-yl]oxy}-2-(tetrahydrofuran-3-yl)ethanamine]
IC50 (MKNK1 [1]): 52 nM | IC50 (MKNK1 [2]): 32 nM

Compound: N[C@H](COc1ccc2ncc(-c3cc4ccccc4o3)n2n1)c1ccc(Cl)cc1 [Example 62, (1S)-2-{[3-(1-benzofuran-2-yl)imidazo[1,2-b]pyridazin-6-yl]oxy}-1-(4-chlorophenyl)ethanamine]
IC50 (MKNK1 [2]): 31 nM

Compound: NCC(CN1CCOCC1)Oc1ccc2ncc(-c3cc4ccccc4o3)n2n1 (stereo not drawn) [Example 31, 2-{[3-(1-Benzofuran-2-yl)imidazo[1,2-b]pyridazin-6-yl]oxy}-3-(morpholin-4-yl)-propan-1-amine]
IC50 (MKNK1 [1]): 78 nM

Compound: N[C@H](COc1ccc2ncc(-c3cc4ccccc4o3)n2n1)c1ccc(F)cc1 [Example 61, (1S)-2-{[3-(1-benzofuran-2-yl)imidazo[1,2-b]pyridazin-6-yl]oxy}-1-(4-fluorophenyl)ethanamine]
IC50 (MKNK1 [2]): 29 nM

Compound: CC(CN)COc1ccc2ncc(-c3cc4ccccc4o3)n2n1 (stereo not drawn) [Example 40, 3-{[3-(1-Benzofuran-2-yl)imidazo[1,2-b]pyridazin-6-yl]oxy}-2-methylpropan-1-amine]
IC50 (MKNK1 [1]): 18 nM | IC50 (MKNK1 [2]): 9 nM

Compound: C[C@H](N)COc1ccc2ncc(-c3cc4c(F)cccc4o3)n2n1 [Example 45, (2S)-1-{[3-(4-Fluoro-1-benzofuran-2-yl)imidazo[1,2-b]pyridazin-6-yl]oxy}-propan-2-amine]
IC50 (MKNK1 [1]): 71 nM | IC50 (MKNK1 [2]): 17 nM

Compound: NCC(Oc1ccc2ncc(-c3cc4ccccc4o3)n2n1)c1ccc(F)cc1 (stereo not drawn) [Example 56, 2-{[3-(1-benzofuran-2-yl)-imidazo-[1,2-b]-pyridazin-6-yl]oxy}-2-(4-fluorophenyl)-ethanamine]
IC50 (MKNK1 [2]): 40 nM

Compound: NC(COc1ccc2ncc(-c3cc4ccccc4o3)n2n1)c1cccnc1 (stereo not drawn) [Example 63, 2-{[3-(1-benzofuran-2-yl)imidazo[1,2-b]pyridazin-6-yl]oxy}-1-(pyridin-3-yl)ethanamine]
IC50 (MKNK1 [2]): 54 nM

Compound: CC(C)Oc1cccc(C(CN)Oc2ccc3ncc(-c4cc5ccccc5o4)n3n2)c1 (stereo not drawn) [Example 58, 2-{[3-(1-benzofuran-2-yl)-imidazo-[1,2-b]-pyridazin-6-yl]oxy}-2-(3-iso-propoxyphenyl)-ethanamine]
IC50 (MKNK1 [2]): 20 nM

Compound: C=CCCC(CN)Oc1ccc2ncc(-c3cc4ccccc4o3)n2n1 (stereo not drawn) [Example 28, 2-{[3-(1-Benzofuran-2-yl)imidazo[1,2-b]pyridazin-6-yl]oxy}hex-5-en-1-amine]
IC50 (MKNK1 [1]): 45 nM

Compound: N[C@@H]1CCCC[C@H]1Oc1ccc2ncc(-c3cc4ccccc4o3)n2n1 [Example 23, (1R,2R)-2-{[3-(1-Benzofuran-2-yl)imidazo[1,2-b]pyridazin-6-yl]oxy}cyclohexan-amine]
IC50 (MKNK1 [1]): 18 nM

Compound: NC(COc1ccc2ncc(-c3cc4ccccc4o3)n2n1)C1CCOCC1 (stereo not drawn) [Example 32, 2-{[3-(1-Benzofuran-2-yl)imidazo[1,2-b]pyridazin-6-yl]oxy}-1-(tetrahydro-2H-pyran-4-yl)ethanamine]
IC50 (MKNK1 [1]): 79 nM

Compound: NCCOCCOc1ccc2ncc(-c3cc4ccccc4o3)n2n1 [Example 21, 2-(2-{[3-(1-Benzofuran-2-yl)imidazo[1,2-b]pyridazin-6-yl]oxy}ethoxy)ethan-amine]
IC50 (MKNK1 [1]): 14 nM

Compound: NCC(Oc1ccc2ncc(-c3cc4ccccc4o3)n2n1)c1ccc(F)cc1F (stereo not drawn) [Example 60, 2-{[3-(1-benzofuran-2-yl)-imidazo-[1,2-b]-pyridazin-6-yl]oxy}-2-(2,4-difluorophenyl)-ethanamine]
IC50 (MKNK1 [2]): 39 nM

Compound: NC[C@H](Oc1ccc2ncc(-c3cc4ccccc4o3)n2n1)c1cccnc1 [Example 55, (2R)-2-{[3-(1-benzofuran-2-yl)imidazo[1,2-b]pyridazin-6-yl]oxy}-2-(pyridin-3-yl)ethanamine]
IC50 (MKNK1 [2]): 16 nM

Compound: NCC(Cc1ccncc1)Oc1ccc2ncc(-c3cc4ccccc4o3)n2n1 (stereo not drawn) [Example 54, 2-{[3-(1-Benzofuran-2-yl)imidazo[1,2-b]pyridazin-6-yl]oxy}-3-(pyridin-4-yl)-propan-1-amine]
IC50 (MKNK1 [1]): 19 nM

Compound: NC1(COc2ccc3ncc(-c4cc5ccccc5o4)n3n2)CCC1 [Example 27, 1-({[3-(1-Benzofuran-2-yl)imidazo[1,2-b]pyridazin-6-yl]oxy}methyl)cyclobutan-amine]
IC50 (MKNK1 [1]): 29 nM

Compound: NCCC(Oc1ccc2ncc(-c3cc4ccccc4o3)n2n1)c1ccc(F)cc1 (stereo not drawn) [Example 64]
IC50 (MKNK1 [2]): 57 nM

Compound: NCC(Oc1ccc2ncc(-c3cc4ccccc4o3)n2n1)c1cccc(C(F)(F)F)c1 (stereo not drawn) [Example 59, 2-{[3-(1-benzofuran-2-yl)-imidazo-[1,2-b]-pyridazin-6-yl]oxy}-2-[3-(trifluoromethyl)-phenyl]-ethanamine]
IC50 (MKNK1 [2]): 37 nM
